Tested on: 233499-124-R-J3-PDC complex spheroid viability, % test/control
Experiment: Anticancer human tumor 233499-124-R-J3-PDC patient-derived colon adenocarcinoma cell line growth inhibition
Details: for IC50: curve of first compound; for viability, T/C: stronger effect = lower value; active means viability on the fitted dose curve at most 10% of control; inactive means the rest
How it was run: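 Complex spheroids of tumor cells with HUVEC and human MSCs, exposed to iadademstat combined with other agents. Each agent tested in half-log steps from near clinical Cmax (else 10 microM top), DMSO ≤0.25%.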

[1] = second compound 0.1 µM, first compound 0.000316 µM
[2] = second compound 0.1 µM, first compound 0.001 µM
[3] = second compound 0.1 µM, first compound 0.00316 µM
[4] = second compound 0.1 µM, first compound 0.01 µM
[5] = second compound 0.1 µM, first compound 0.0316 µM
[6] = second compound 0.1 µM, first compound 0.1 µM
[7] = second compound 0.316 µM, first compound 0.000316 µM
[8] = second compound 0.316 µM, first compound 0.001 µM
[9] = second compound 0.316 µM, first compound 0.00316 µM
[10] = second compound 0.316 µM, first compound 0.01 µM
[11] = second compound 0.316 µM, first compound 0.0316 µM
[12] = second compound 0.316 µM, first compound 0.1 µM
[13] = second compound 1 µM, first compound 0.000316 µM
[14] = second compound 1 µM, first compound 0.001 µM
[15] = second compound 1 µM, first compound 0.00316 µM
[16] = second compound 1 µM, first compound 0.01 µM
[17] = second compound 1 µM, first compound 0.0316 µM
[18] = second compound 1 µM, first compound 0.1 µM
[19] = second compound 3.16 µM, first compound 0.000316 µM
[20] = second compound 3.16 µM, first compound 0.001 µM
[21] = second compound 3.16 µM, first compound 0.00316 µM
[22] = second compound 3.16 µM, first compound 0.01 µM
[23] = second compound 3.16 µM, first compound 0.0316 µM
[24] = second compound 3.16 µM, first compound 0.1 µM
[25] = second compound 10 µM, first compound 0.000316 µM
[26] = second compound 10 µM, first compound 0.001 µM
[27] = second compound 10 µM, first compound 0.00316 µM
[28] = second compound 10 µM, first compound 0.01 µM
[29] = second compound 10 µM, first compound 0.0316 µM
[30] = second compound 10 µM, first compound 0.1 µM
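Further: spheroids exposed to agents for one week before readout.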

CC(C)CC(NC(=O)C(Cc1ccccc1)NC(=O)c1cnccn1)B(O)O (stereo not given) + NC1CC1c1ccc(-c2cccc(O)c2)cc1
0.445 nM: IC50 (second compound 0.316 µM)
inactive: viability, T/C [1] 80.7% | viability, T/C [7] 71% | viability, T/C [13] 80.7% | viability, T/C [19] 89.8% | viability, T/C [25] 60.1%
0.528 nM: IC50 (second compound 3.16 µM)
0.389 nM: IC50 (second compound 10 µM)
0.491 nM: IC50 (second compound 0.1 µM)
0.493 nM: IC50 (second compound 1 µM)
active: viability, T/C [2] 0.42% | viability, T/C [3] 0.06% | viability, T/C [4] 0.06% | viability, T/C [5] 0.07% | viability, T/C [6] 0.23% | viability, T/C [8] 0.32% | viability, T/C [9] 0.06% | viability, T/C [10] 0.23% | viability, T/C [11] 0.05% | viability, T/C [12] 0.21% | viability, T/C [14] 0.91% | viability, T/C [15] 0.05% | viability, T/C [16] 0.04% | viability, T/C [17] 0.06% | viability, T/C [18] 0.2% | viability, T/C [20] 0.32% | viability, T/C [21] 0.08% | viability, T/C [22] 0.06% | viability, T/C [23] 0.07% | viability, T/C [24] 0.23% | viability, T/C [26] 3.72% | viability, T/C [27] 0.8% | viability, T/C [28] 0.22% | viability, T/C [29] 0.42% | viability, T/C [30] 0.34%

CC(C)CC(NC(=O)CNC(=O)c1cc(Cl)ccc1Cl)B1OC(=O)CC(CC(=O)O)(C(=O)O)O1 (stereo not given) + NC1CC1c1ccc(-c2cccc(O)c2)cc1
5.3 nM: IC50 (second compound 0.316 µM)
4.23 nM: IC50 (second compound 1 µM)
4.65 nM: IC50 (second compound 3.16 µM)
active: viability, T/C [4] 1.61% | viability, T/C [5] 0.06% | viability, T/C [6] 0.15% | viability, T/C [10] 2.74% | viability, T/C [11] 0.07% | viability, T/C [12] 0.16% | viability, T/C [16] 1.28% | viability, T/C [17] 0.13% | viability, T/C [18] 0.13% | viability, T/C [22] 2.88% | viability, T/C [23] 0.06% | viability, T/C [24] 0.12% | viability, T/C [28] 0.89% | viability, T/C [29] 0.15% | viability, T/C [30] 0.18%
4.93 nM: IC50 (second compound 0.1 µM)
inactive: viability, T/C [1] 114% | viability, T/C [2] 105% | viability, T/C [3] 80.2% | viability, T/C [7] 113% | viability, T/C [8] 109% | viability, T/C [9] 88.4% | viability, T/C [13] 104% | viability, T/C [14] 95.1% | viability, T/C [15] 66.3% | viability, T/C [19] 89.6% | viability, T/C [20] 88.1% | viability, T/C [21] 73.8% | viability, T/C [25] 70.4% | viability, T/C [26] 88.1% | viability, T/C [27] 56.9%
3.64 nM: IC50 (second compound 10 µM)

COc1cc(Nc2ncc3c(n2)-c2ccc(Cl)cc2C(c2c(F)cccc2OC)=NC3)ccc1C(=O)O + NC1CC1c1ccc(-c2cccc(O)c2)cc1
inactive: viability, T/C [3] 44.5% | viability, T/C [4] 54.3% | viability, T/C [5] 66.4% | viability, T/C [6] 72.5% | viability, T/C (second compound 0.1 µM, first compound 0.316 µM) 62% | viability, T/C (second compound 0.1 µM, first compound 1 µM) 102% | viability, T/C [9] 49.5% | viability, T/C [10] 59.6% | viability, T/C [11] 64.1% | viability, T/C [12] 62.1% | viability, T/C (second compound 0.316 µM, first compound 0.316 µM) 62.8% | viability, T/C (second compound 0.316 µM, first compound 1 µM) 98.4% | viability, T/C [15] 44.2% | viability, T/C [16] 50.7% | viability, T/C [17] 53.2% | viability, T/C [18] 54.3% | viability, T/C (second compound 1 µM, first compound 0.316 µM) 60.6% | viability, T/C (second compound 1 µM, first compound 1 µM) 82.9% | viability, T/C [21] 39.8% | viability, T/C [22] 52.1% | viability, T/C [23] 70.5% | viability, T/C [24] 57.2% | viability, T/C (second compound 3.16 µM, first compound 0.316 µM) 62.5% | viability, T/C (second compound 3.16 µM, first compound 1 µM) 88.9% | viability, T/C [27] 33% | viability, T/C [28] 48.3% | viability, T/C [29] 56.2% | viability, T/C [30] 49% | viability, T/C (second compound 10 µM, first compound 0.316 µM) 52.1% | viability, T/C (second compound 10 µM, first compound 1 µM) 86.1%
> 1000 nM: IC50 (second compound 0.1 µM) | IC50 (second compound 0.316 µM)
< 3.16 nM: IC50 (second compound 1 µM) | IC50 (second compound 3.16 µM) | IC50 (second compound 10 µM)

— PubChem BioAssay AID1918930 (Molecular Pharmacology Branch, DTP, NCI, 2023)
